Data as given in ChEMBL document CHEMBL1201862, “PubChem BioAssay data set” (2004).
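48-hour exposure; five concentrations; linearly interpolated endpoints. GI50 marks 50% less growth.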 Activity calls are given as the source filed them. Cut-off read from the data, not from the text of the source: active = GI50 up to about 1.1 µM and inactive = higher.

How the values were obtained:
Assay in all cases: NCI anticancer screen, dose series, 48 h
[1] = tested on: SN12C
[2] = tested on: PC-3
[3] = tested on: ACHN
[4] = tested on: IGROV-1
[5] = tested on: MDA-N
[6] = tested on: RXF 393
[7] = tested on: NCI-H522
[8] = tested on: OVCAR-3
[9] = tested on: SW-620
[10] = tested on: OVCAR-8
[11] = tested on: SK-MEL-5
[12] = tested on: UO-31
[13] = tested on: 786-0
[14] = tested on: HT-29
[15] = tested on: Hs-578T
[16] = tested on: SK-MEL-28
[17] = tested on: NCI-H460
[18] = tested on: SF-268
[19] = tested on: SR

Compound	GI50 [1]	GI50 [2]	GI50 [3]	GI50 [4]	GI50 [5]	GI50 [6]	GI50 [7]	GI50 [8]	GI50 [9]	GI50 [10]	GI50 [11]	GI50 [12]	GI50 [13]	GI50 [14]	GI50 [15]	GI50 [16]	GI50 [17]	GI50 [18]	GI50 [19]
Oc1ccc2ccccc2c1-c1nnc(CCCCCCCCc2nnc(-c3c(O)ccc4ccccc34)o2)o1	1.21 µM (inactive)	1.98 µM (inactive)	0.741 µM (active)	0.536 µM (active)	4.23 µM (inactive)	3.48 µM (inactive)	0.63 µM (active)	0.314 µM (active)	3.44 µM (inactive)	2.18 µM (inactive)	0.838 µM (active)	0.389 µM (active)	1.1 µM (active)	13.4 µM (inactive)	> 84.9 µM (inactive)	18.1 µM (inactive)	0.955 µM (active)	0.834 µM (active)	–
CCOP(=O)(OCC)C(Nc1ccc(Cl)cc1)c1ccc(F)cc1 (stereo not drawn)	18.4 µM (inactive)	–	28.4 µM (inactive)	> 10 µM (inactive)	19.9 µM (inactive)	21.2 µM (inactive)	20.3 µM (inactive)	29.5 µM (inactive)	> 10 µM (inactive)	28.8 µM (inactive)	17.3 µM (inactive)	20.7 µM (inactive)	19.3 µM (inactive)	22 µM (inactive)	20.8 µM (inactive)	18.4 µM (inactive)	19.5 µM (inactive)	20.1 µM (inactive)	40.8 µM (inactive)
NC(=O)N/N=C(\Cc1nc2ccc(Cl)cc2nc1O)C(=O)Nc1ccc(Cl)cc1Cl	> 100 µM (inactive)	> 100 µM (inactive)	> 100 µM (inactive)	81.5 µM (inactive)	> 100 µM (inactive)	–	> 100 µM (inactive)	> 100 µM (inactive)	> 100 µM (inactive)	> 100 µM (inactive)	> 100 µM (inactive)	> 100 µM (inactive)	> 100 µM (inactive)	> 100 µM (inactive)	57.4 µM (inactive)	> 100 µM (inactive)	> 100 µM (inactive)	> 100 µM (inactive)	–
CCOC(=O)C1(C(=O)OCC)C=C(c2ccccc2)N(C2OC(COC(C)=O)C(OC(C)=O)C(OC(C)=O)C2OC(C)=O)C1=S (stereo not drawn)	> 100 µM (inactive)	–	–	> 100 µM (inactive)	> 100 µM (inactive)	> 100 µM (inactive)	73.1 µM (inactive)	> 100 µM (inactive)	> 100 µM (inactive)	> 100 µM (inactive)	> 100 µM (inactive)	61.5 µM (inactive)	> 100 µM (inactive)	> 100 µM (inactive)	68.7 µM (inactive)	> 100 µM (inactive)	> 100 µM (inactive)	> 100 µM (inactive)	> 100 µM (inactive)
CCN(CC)c1c(-c2c(N(CC)CC)c(OC(C)=O)c3sccn3c2=O)c(=O)n2ccsc2c1OC(C)=O	> 100 µM (inactive)	> 100 µM (inactive)	> 100 µM (inactive)	68.1 µM (inactive)	> 100 µM (inactive)	–	–	> 100 µM (inactive)	> 100 µM (inactive)	33 µM (inactive)	> 100 µM (inactive)	93.1 µM (inactive)	22.5 µM (inactive)	> 100 µM (inactive)	38.8 µM (inactive)	> 100 µM (inactive)	> 100 µM (inactive)	39.9 µM (inactive)	–
C[C@]12CC[C@@H]3c4cc(Br)c(O)c(Br)c4CC[C@H]3[C@@H]1CC(Br)C2=O (stereo partly drawn)	4.53 µM (inactive)	8.61 µM (inactive)	6.37 µM (inactive)	9.23 µM (inactive)	5.79 µM (inactive)	2.51 µM (inactive)	–	2.58 µM (inactive)	3.36 µM (inactive)	2.54 µM (inactive)	–	1.23 µM (inactive)	4.24 µM (inactive)	3.26 µM (inactive)	5.86 µM (inactive)	7.28 µM (inactive)	5.82 µM (inactive)	5.68 µM (inactive)	–
CNC(=O)CCCNC(=O)CCCC(=O)OC	> 100 µM (inactive)	> 100 µM (inactive)	> 100 µM (inactive)	> 100 µM (inactive)	> 100 µM (inactive)	–	> 100 µM (inactive)	> 100 µM (inactive)	> 100 µM (inactive)	> 100 µM (inactive)	> 100 µM (inactive)	> 100 µM (inactive)	> 100 µM (inactive)	> 100 µM (inactive)	> 100 µM (inactive)	> 100 µM (inactive)	> 100 µM (inactive)	> 100 µM (inactive)	–
O=C(c1ccc(Cl)cc1)N(C(=O)N1CCCCC1)c1ccccc1	> 100 µM (inactive)	17.7 µM (inactive)	> 100 µM (inactive)	56.4 µM (inactive)	> 100 µM (inactive)	–	–	> 100 µM (inactive)	> 100 µM (inactive)	> 100 µM (inactive)	34.2 µM (inactive)	34.7 µM (inactive)	> 100 µM (inactive)	> 100 µM (inactive)	41.1 µM (inactive)	> 100 µM (inactive)	–	> 100 µM (inactive)	–
O=c1[nH]ncc2[nH]c3c(c12)CCCc1ccccc1-3	63.1 µM (inactive)	64.1 µM (inactive)	32.8 µM (inactive)	55.2 µM (inactive)	29.6 µM (inactive)	15.1 µM (inactive)	48.9 µM (inactive)	48.4 µM (inactive)	43.2 µM (inactive)	53.6 µM (inactive)	22.4 µM (inactive)	43.4 µM (inactive)	33 µM (inactive)	31.1 µM (inactive)	5.53 µM (inactive)	–	29.7 µM (inactive)	23.6 µM (inactive)	–
C=CCN1C[C@@H](C)N([C@@H](c2ccccc2)c2ccc(C(=O)N(CC)CC)cc2)C[C@@H]1C	> 100 µM (inactive)	> 100 µM (inactive)	> 100 µM (inactive)	> 100 µM (inactive)	> 100 µM (inactive)	–	> 100 µM (inactive)	> 100 µM (inactive)	> 100 µM (inactive)	> 100 µM (inactive)	> 100 µM (inactive)	> 100 µM (inactive)	> 100 µM (inactive)	> 100 µM (inactive)	> 100 µM (inactive)	> 100 µM (inactive)	–	> 100 µM (inactive)	> 100 µM (inactive)
CC(=O)[C@]1(O)Cc2c(O)c3c(c(O)c2C(OC2OC(C)C(O)C(O)C2F)C1)C(=O)c1ccccc1C3=O (stereo partly drawn)	0.0247 µM (active)	0.316 µM (active)	0.0107 µM (active)	0.0419 µM (active)	0.475 µM (active)	0.624 µM (active)	0.316 µM (active)	0.568 µM (active)	0.0796 µM (active)	0.0238 µM (active)	0.0516 µM (active)	< 0.01 µM (active)	0.0288 µM (active)	0.109 µM (active)	0.33 µM (active)	0.547 µM (active)	< 0.01 µM (active)	0.084 µM (active)	–
C=C(C)COc1cc(/N=C(/S)OC(C)C)ccc1Cl	16.1 µM (inactive)	14.7 µM (inactive)	17.1 µM (inactive)	16.6 µM (inactive)	16.7 µM (inactive)	–	14.9 µM (inactive)	15.8 µM (inactive)	13.7 µM (inactive)	16.2 µM (inactive)	19.5 µM (inactive)	13.5 µM (inactive)	16.6 µM (inactive)	14.4 µM (inactive)	20.4 µM (inactive)	17.3 µM (inactive)	15.4 µM (inactive)	19.5 µM (inactive)	–
